From PubChem BioAssay AID330 (DTP/NCI, 2004)
Several values for one entry are separate records, joined by “and”; a condition that tells them apart may be missing. Equal entries are not always repeated. Inconclusive results and toxic doses are left out. How the source made its calls: active means survival T/C of 150% or more; inactive means T/C below 125% in these data.

System: P388 leukemia ip, CD2F1 mice, survival T/C
Test: NCI In Vivo Anticancer Drug Screen. Data for tumor model P388 Leukemia (intraperitoneal) in CD2F1 (CDF1) mice
Settings: endpoint: median survival time, higher = longer survival
In short: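 Mice carrying the transplanted tumor received test compound or vehicle. Survival was recorded in each group, and the value is the treated-group measurement divided by that of the vehicle-treated control group.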

[1] = dose: 60.0 mg/kg/injection, schedule: Q01DX005 (ip), vehicle: saline with Tween-80
[2] = dose: 120.0 mg/kg/injection, schedule: Q01DX005 (ip), vehicle: saline with Tween-80
[3] = dose: 240.0 mg/kg/injection, schedule: Q01DX005 (ip), vehicle: saline with Tween-80
[4] = dose: 25.0 mg/kg/injection, schedule: Q01DX009 (ip), vehicle: saline with Tween-80
[5] = dose: 50.0 mg/kg/injection, schedule: Q01DX009 (ip), vehicle: saline with Tween-80
[6] = dose: 100.0 mg/kg/injection, schedule: Q01DX009 (ip), vehicle: saline with Tween-80
[7] = dose: 200.0 mg/kg/injection, schedule: Q01DX009 (ip), vehicle: saline with Tween-80
[8] = dose: 6.25 mg/kg/injection, schedule: Q01DX005 (ip), vehicle: saline
[9] = dose: 50.0 mg/kg/injection, schedule: Q01DX009 (ip), vehicle: Klucel (hydroxypropylcellulose) (HPC)
[10] = dose: 100.0 mg/kg/injection, schedule: Q01DX009 (ip), vehicle: Klucel (hydroxypropylcellulose) (HPC)
[11] = dose: 200.0 mg/kg/injection, schedule: Q01DX009 (ip), vehicle: Klucel (hydroxypropylcellulose) (HPC)
[12] = dose: 400.0 mg/kg/injection, schedule: Q01DX009 (ip), vehicle: Klucel (hydroxypropylcellulose) (HPC)
[13] = dose: 100.0 mg/kg/injection, schedule: Q01DX001 (ip), vehicle: saline with Tween-80

Measured: T/C

Fc1ccc(C(Nc2nncs2)Nc2nncs2)cc1F
inactive: [1] 101 % of control | [2] 101 % of control | [3] 110 % of control

CNC(=O)OCc1ncn(-c2ccccc2)c1COC(=O)NC
inactive: dose: 12.5 mg/kg/injection, schedule: Q01DX005 (ip), vehicle: distilled water + Tween-80 99 % of control | dose: 25.0 mg/kg/injection, schedule: Q01DX005 (ip), vehicle: distilled water + Tween-80 95 % of control | dose: 50.0 mg/kg/injection, schedule: Q01DX005 (ip), vehicle: distilled water + Tween-80 101 % of control | dose: 100.0 mg/kg/injection, schedule: Q01DX005 (ip), vehicle: distilled water + Tween-80 101 % of control | dose: 200.0 mg/kg/injection, schedule: Q01DX005 (ip), vehicle: distilled water + Tween-80 99 % of control

O=C(OCC1C=C(OC(=O)c2ccccc2)C(=O)C(OC(=O)c2ccccc2)O1)c1ccccc1 (stereo not drawn)
inactive: dose: 6.25 mg/kg/injection, schedule: Q01DX009 (ip), vehicle: saline with Tween-80 98 % of control | dose: 12.5 mg/kg/injection, schedule: Q01DX009 (ip), vehicle: saline with Tween-80 94 % of control | [4] 86 % of control | [5] 89 % of control | [6] 93 % of control | [7] 102 % of control

CC(C)C1=C2C3CC(O)C(C=O)=CC(=O)C3(C)CCC2(C)CC1 (stereo not drawn)
inactive: dose: 6.25 mg/kg/injection, schedule: Q01DX009 (ip), vehicle: saline + alcohol 112 % of control | dose: 12.5 mg/kg/injection, schedule: Q01DX009 (ip), vehicle: saline + alcohol 110 % of control | dose: 25.0 mg/kg/injection, schedule: Q01DX009 (ip), vehicle: saline + alcohol 108 % of control

CCCCC(CCCCCC(CCCC)C1NC(C)Cc2cc(OC)c(OC)cc21)C1NC(C)Cc2cc(OC)c(OC)cc21 (stereo not drawn)
inactive: [8] 99 % of control | dose: 12.5 mg/kg/injection, schedule: Q01DX005 (ip), vehicle: saline 105 % of control | dose: 25.0 mg/kg/injection, schedule: Q01DX005 (ip), vehicle: saline 90 % of control

CC(C)(C)c1cc(C=O)cc(C(C)(C)C)c1O
inactive: [4] 99 % of control | [5] 100 % of control | [6] 96 % of control | [7] 91 % of control

NC(CS(=O)(=O)NO)C(=O)O (stereo not drawn)
inactive: dose: 60.0 mg/kg/injection, schedule: Q01DX009 (ip), vehicle: saline with Tween-80 97 % of control | dose: 120.0 mg/kg/injection, schedule: Q01DX009 (ip), vehicle: saline with Tween-80 113 % of control | dose: 240.0 mg/kg/injection, schedule: Q01DX009 (ip), vehicle: saline with Tween-80 119 % of control

Cc1ccc(C)c(C(=O)CCN(C)C)c1
inactive: dose: 15.0 mg/kg/injection, schedule: Q01DX005 (ip), vehicle: saline 106 % of control | dose: 30.0 mg/kg/injection, schedule: Q01DX005 (ip), vehicle: saline 94 % of control | dose: 60.0 mg/kg/injection, schedule: Q01DX005 (ip), vehicle: saline 99 % of control and 101 % of control

COc1ccc(/C=C2\SC(=S)NC2=O)cc1OC
inactive: [9] 94 % of control | [10] 92 % of control | [11] 94 % of control | [12] 91 % of control

S=C(S)n1nc(-c2ccccc2)c(N=Nc2cccc(Cl)c2)c1-c1ccccc1
inactive: [13] 91 % of control | dose: 200.0 mg/kg/injection, schedule: Q01DX001 (ip), vehicle: saline with Tween-80 91 % of control | dose: 400.0 mg/kg/injection, schedule: Q01DX001 (ip), vehicle: saline with Tween-80 113 % of control

C1=C(/N=NNc2ccccc2)CCCCCC/1
inactive: dose: 50.0 mg/kg/injection, schedule: Q01DX005 (ip), vehicle: Klucel + Tween-80 102 % of control | dose: 100.0 mg/kg/injection, schedule: Q01DX005 (ip), vehicle: Klucel + Tween-80 100 % of control | dose: 200.0 mg/kg/injection, schedule: Q01DX005 (ip), vehicle: Klucel + Tween-80 104 % of control

Cc1ccccc1N=Nc1c(N)ccc2ccccc12
inactive: [10] 105 % of control | [11] 111 % of control | [12] 109 % of control

C1=C[N-]c2c3c(ccc2=C1)=CC=C[N-]3.C1=C[N-]c2c3c(ccc2=C1)=CC=C[N-]3.C1C[N-]C2C(C1)CCC1CC[N-]CC12.[Ni]
inactive: dose: 3.12 mg/kg/injection, schedule: Q01DX005 (ip), vehicle: saline 97 % of control | [8] 96 % of control

Cc1ccc(C2N3CCCN2CC3)cc1 (stereo not drawn)
inactive: [5] 104 % of control | [6] 102 % of control | [7] 109 % of control

CC(=O)NC1C(Nc2ccc(S(=O)(=O)Nc3cc(C)nc(C)n3)cc2)OC(CO)C(O)C1O (stereo not drawn)
inactive: dose: 50.0 mg/kg/injection, schedule: Q01DX005 (ip), vehicle: saline 108 % of control | dose: 100.0 mg/kg/injection, schedule: Q01DX005 (ip), vehicle: saline 98 % of control | dose: 200.0 mg/kg/injection, schedule: Q01DX005 (ip), vehicle: saline 101 % of control

CCCCNc1cc(Nc2ccc(Br)cc2)nc(N)n1
inactive: dose: 6.25 mg/kg/injection, schedule: Q04DX003 (ip), vehicle: saline with Tween-80 106 % of control | dose: 12.5 mg/kg/injection, schedule: Q04DX003 (ip), vehicle: saline with Tween-80 99 % of control | dose: 25.0 mg/kg/injection, schedule: Q04DX003 (ip), vehicle: saline with Tween-80 106 % of control | dose: 50.0 mg/kg/injection, schedule: Q04DX003 (ip), vehicle: saline with Tween-80 100 % of control

O=C(Oc1ccc[nH]c1=O)c1cccc(Cl)c1
inactive: dose: 25.0 mg/kg/injection, schedule: Q01DX009 (ip), vehicle: distilled water + Tween-80 100 % of control | dose: 50.0 mg/kg/injection, schedule: Q01DX009 (ip), vehicle: distilled water + Tween-80 100 % of control | dose: 100.0 mg/kg/injection, schedule: Q01DX009 (ip), vehicle: distilled water + Tween-80 95 % of control | dose: 200.0 mg/kg/injection, schedule: Q01DX009 (ip), vehicle: distilled water + Tween-80 99 % of control | dose: 400.0 mg/kg/injection, schedule: Q01DX009 (ip), vehicle: distilled water + Tween-80 97 % of control

COc1ccc2cc1Oc1ccc(cc1)CC1c3cc(c(OC)cc3CCN1C)Oc1c(OC)c(OC)c(O)c3c1C(C2)N(C)CC3 (stereo not drawn)
inactive: dose: 25.0 mg/kg/injection, schedule: Q01DX001 (ip), vehicle: saline with Tween-80 99 % of control | dose: 50.0 mg/kg/injection, schedule: Q01DX001 (ip), vehicle: saline with Tween-80 105 % of control | [13] 108 % of control and 111 % of control

CN1c2ccc(Br)c[c]2[Sn]2([c]3cc(Br)ccc31)[c]1cc(Br)ccc1N(C)c1ccc(Br)c[c]12
inactive: [1] 95 % of control | [2] 98 % of control | [3] 92 % of control

CCOc1ccc(NC(=O)OCc2c3ccccc3cc3ccccc23)cc1
inactive: [9] 100 % of control | [10] 96 % of control | [11] 105 % of control

OCCN1CCN(Cc2cc(Cl)cc(CN3CCN(CCO)CC3)c2O)CC1
inactive: [1] 100 % of control | [2] 97 % of control | [3] 100 % of control

COc1c(C(C)(C)C)cc(C(C)(C)C)c(OC)c1Br
inactive: [9] 100 % of control | [10] 94 % of control | [11] 87 % of control

CC1(C)CC(OS(=O)(=O)c2ccc(Br)cc2)CC(C)(C)N1O
inactive: [9] 93 % of control | [10] 99 % of control | [11] 97 % of control

N=C(N)SCCN1C(=O)NC(c2ccccc2)(c2ccccc2)C1=O
inactive: dose: 25.0 mg/kg/injection, schedule: Q04DX003 (ip), vehicle: Klucel (hydroxypropylcellulose) (HPC) 114 % of control | dose: 50.0 mg/kg/injection, schedule: Q04DX003 (ip), vehicle: Klucel (hydroxypropylcellulose) (HPC) 114 % of control | dose: 100.0 mg/kg/injection, schedule: Q04DX003 (ip), vehicle: Klucel (hydroxypropylcellulose) (HPC) 96 % of control | dose: 200.0 mg/kg/injection, schedule: Q04DX003 (ip), vehicle: Klucel (hydroxypropylcellulose) (HPC) 114 % of control

N#Cc1ccccc1N1CCCC1=O
inactive: dose: 100.0 mg/kg/injection, schedule: Q04DX002 (ip), vehicle: saline 90 % of control | dose: 200.0 mg/kg/injection, schedule: Q04DX002 (ip), vehicle: saline 102 % of control | dose: 400.0 mg/kg/injection, schedule: Q04DX002 (ip), vehicle: saline 97 % of control

[Cl][Mo]([Cl])([Cl])[Cl].[Cl][Mo]([Cl])([Cl])[Cl]
inactive: dose: 25.0 mg/kg/injection, schedule: Q01DX009 (ip), vehicle: saline 104 % of control | dose: 50.0 mg/kg/injection, schedule: Q01DX009 (ip), vehicle: saline 103 % of control | dose: 100.0 mg/kg/injection, schedule: Q01DX009 (ip), vehicle: saline 99 % of control
